Read-outs that look alike come from different tables or passages of the source.
What was measured:
guinea pig = experiment: Bronchospasm produced by a histamine aerosol at 4%, compound i.v.; assay type: in vivo
Description: The bronchodilating activity has been studied in the guinea pig by the method of H. KONZETT and R. ROSSLER, Arch. Exp. Path. U. Pharm. 195, 71 (1940).
For example, the bronchospasm produced in the guinea pig by a histamine aerosol et 4% is inhibited of 96% by the compound of Example 1 B form, at the dose of 0.30 mg/kg i.v., and of 100% by the compound of Example 24 B form, at the dose of 0.35 mg/kg i.v.

aorta of the rat [1] = experiment: Relaxation of rat aortic rings contracted by potassium depolarisation (KCl); assay type: cell-based; conditions: rat aorta rings without endothelium
Description: (§1) Male Wistar rats (325-375 g) are anaesthetised i.p. using sodium pentobarbital (30 mg/kg). The thoracic aorta and the mesenteric portal vein are removed. The aorta is dissected into rings 3 mm long and the endothelium is removed mechanically.
(§2) The organs are placed in a 20 ml thermostatically controlled vessel containing a physiological solution composed of (mM): NaCl 112; KCl 5; KH2 PO4 1; MgSO4 1.2; CaCl2 2.5; NaHCO3 25; glucose 11.5; EDTA 0.1; pH: 7.4; 37° C.; 95% O2 +5% CO2.
(§3) The initial force applied is 2 g in the case of the aorta and 0.5 g in the case of the portal vein. The variations in force are measured by a STATHAM sensor connected to a transducer amplifier (GOULD) and are monitored continuously on a GOULD 2400 graphic recorder.
(§4) The experimental protocols are as follows: After a stabilisation period of 90 minutes, the aortic rings are subjected to various tests:
potassium depolarisation:
The preparations are exposed to a 30 mM or 80 mM KCl (and 87 and 37 mM NaCl, respectively) hyperpotassium medium; after 30 minutes' stabilisation of contraction, cumulative concentrations of the product to be tested are added every 15 minutes. The relaxation values obtained allow the IC50 s to be calculated.
(§5) The products are used in a form dissolved in water or a suitable solvent.
(§6) The concentrations expressed refer to the final concentrations in terms of base in the isolated organ baths.

aorta of the rat [2] = experiment: Reactivity of rat aortic rings to 4-aminopyridine (4 AP); assay type: cell-based; conditions: 4 AP 5 mM
Description: as §1, §2, §3, §4
reactivity to 4-aminopyridine (4 AP)
The product to be tested, at a given concentration, or its solvent, is incubated in the normal physiological solution 15 minutes before the addition of the 4 AP (5 mM).
The maximum amplitudes of the responses to the 4 AP in the presence of the product or the solvent are compared.
as §5, §6

[3] = test system: spontaneously hypertensive rat (SHR); experiment: Arterial pressure in the conscious spontaneously hypertensive rat (SHR), oral; assay type: in vivo
Description: The study is carried out on SHR male rats (Charles River) weighing from 260 g to 330 g and aged from 18 to 20 weeks. A polyethylene catheter is positioned at the level of the abdominal aorta and tunnelised at the level of the neck under anaesthesia (ketamine hydrochloride 150 mg/kg intraperitoneally). The animals, placed in movement-restraining cages, are tested in the conscious state at least 48 hours after intervention. The arterial pressure, measured by a STATHAM P23 pressure sensor connected to the abdominal catheter, is registered on a GOULD 2400 recorder. […] The doses administered are expressed in mg/kg of base.
The results obtained with a certain number of representative products of the invention and a reference product, CROMAKALIM, are grouped in the following Table. The variations in systolic and diastolic arterial pressure (PAS and PAD) presented at the most significant times after treatment are expressed as percentage variation with respect to the control values.

[4] = test system: conscious renally hypertensive dog; experiment: Arterial pressure in the conscious renally hypertensive dog; assay type: in vivo; conditions: gastric intubation, 0.1 mg/kg
Description: Mongrel dogs weighing from 20 to 25 kg are used. A silastic catheter positioned under anaesthesia (sodium pentobarbital 30 mg/kg i.v.) at the level of the abdominal aorta and left over a prolonged period permits the later measurement of the arterial pressure in the conscious animals. Arterial hypertension is induced by a second intervention under anaesthesia consisting in a constriction of the left renal artery using a clip, which reduces its rate of flow by approximately 70%, the left kidney is enveloped in a latex capsule and the contralateral kidney is left in place.
The systolic and diastolic arterial pressures (PAS and PAD) are measured using a STATHAM P23 pressure sensor connected to the silastic catheter and linked to a GOULD pressure amplifier. The products are tested on the animals, which have become hypertensive, in the conscious state, at least one week after the second intervention. The arterial pressure is monitored continuously on an ES1000 GOULD recorder until 7 hours have elapsed after the treatment and then until 24 hours have elapsed.
The products to be tested are administered via the digestive system, after gastric intubation, in a form dissolved in water or a suitable solvent. The doses administered are expressed in mg of base with respect to body weight.
The representative products of the invention were compared with the reference product (CROMAKALIM). The variations in the systolic and diastolic arterial pressures (PAS and PAD), presented at the most significant times after treatment, are expressed as percentage variation with respect to the control values.

anaesthetised dog = experiment: Haemodynamic study in the anaesthetised dog (vascular resistances), i.v.; assay type: in vivo; conditions: 10 μg/kg
Description: A complete haemodynamic study was carried out on mongrel dogs weighing from 25 to 30 kg, which were anaesthetised with sodium pentobarbital 30 mg/kg i.v., intubated and ventilated and subjected to a thoracotomy at the 5th left intercostal space. The measurement of the […] is carried out using electromagnetic rings positioned at the level of the ascending aorta and the circumflex branch of the left coronary artery, respectively, and connected to GOULD SP 2202 electromagnetic flow meters. The aortic pressure is measured by a MILLAR probe introduced via the femoral artery.
The total peripheral vascular resistance values (TPR) and the mean coronary vascular resistance values (CVRM) are calculated by the ratio between the mean aortic pressure and the mean cardiac output and the mean coronary output, respectively. The products tested were injected via the femoral vein in a form dissolved in water or a suitable solvent.
The evolution of the vascular resistances, expressed as percentage variation with respect to the control values, is presented as a function of time in the following Table.

COC(=O)c1ccc2c(c1)C(N1C(=O)CCC1CO)C(O)C(C)(C)O2 (single isomer, unassigned) [Example 24 B form]
Inhibition of the bronchospasm produced by a histamine aerosol at 4% (guinea pig; 0.35 mg/kg i.v.): 100%

CC1(C)Oc2ccc(C#N)cc2[C@@H](N2CCCC2=O)[C@@H]1O (relative stereo) [CROMAKALIM, reference compound]
IC50 (aorta of the rat [1]; Rattus norvegicus, 30 mM KCl, read-out: IC50 (M) KCl 30 mM): 4.2e-07 M
IC50 (aorta of the rat [1]; Rattus norvegicus, 80 mM KCl, read-out: IC50 (M) KCl 80 mM): > 0.0001 M
% inhibition of the response to 4AP (aorta of the rat [2]; product 10^-5 M): 74%
% inhibition of the response to 4AP (aorta of the rat [2]; product 10^-7 M): 13%
Variation (%) of PAD after treatment ([3]; 0.3 mg/kg, 1 H): -26 ± 3%
Variation (%) of PAS after treatment ([3]; 0.3 mg/kg, 1 H): -21 ± 3%
Variation (%) of PAD after treatment ([3]; 0.3 mg/kg, 3 H): -7 ± 5%
Variation (%) of PAS after treatment ([3]; 0.3 mg/kg, 3 H): -5 ± 4%
Variation (%) of PAD after treatment ([3]; 0.3 mg/kg, 6 H): -3 ± 1%
Variation (%) of PAS after treatment ([3]; 0.3 mg/kg, 6 H): -1 ± 2%
Variation (%) of PAD after treatment ([3]; 0.3 mg/kg, 30 min): -34 ± 2%
Variation (%) of PAS after treatment ([3]; 0.3 mg/kg, 30 min): -29 ± 2%
Variation (%) of PAD after treatment ([3]; 1.0 mg/kg, 1 H): -33 ± 3%
Variation (%) of PAS after treatment ([3]; 1.0 mg/kg, 1 H): -23 ± 4%
Variation (%) of PAD after treatment ([3]; 1.0 mg/kg, 3 H): -25 ± 4%
Variation (%) of PAS after treatment ([3]; 1.0 mg/kg, 3 H): -19 ± 3%
Variation (%) of PAD after treatment ([3]; 1.0 mg/kg, 6 H): -20 ± 2%
Variation (%) of PAS after treatment ([3]; 1.0 mg/kg, 6 H): -15 ± 2%
Variation (%) of PAD after treatment ([3]; 1.0 mg/kg, 30 min): -44 ± 4%
Variation (%) of PAS after treatment ([3]; 1.0 mg/kg, 30 min): -34 ± 5%
Variation (%) of PAD after treatment ([4]; 1 H): -23%
Variation (%) of PAS after treatment ([4]; 1 H): -26%
Variation (%) of PAD after treatment ([4]; 3 H): -9%
Variation (%) of PAS after treatment ([4]; 3 H): -9%
Variation (%) of PAD after treatment ([4]; 7 H): -5%
Variation (%) of PAS after treatment ([4]; 7 H): +2%
Variation (%) of PAD after treatment ([4]; 24 H): +18%
Variation (%) of PAS after treatment ([4]; 24 H): +9%
Variation (%) of PAD after treatment ([4]; 30 min): -46%
Variation (%) of PAS after treatment ([4]; 30 min): -50%
Variation (%) of CVRM after treatment (anaesthetised dog; 1 min): -69.0%
Variation (%) of TPR after treatment (anaesthetised dog; 1 min): -26.8%
Variation (%) of CVRM after treatment (anaesthetised dog; 10 min): -38.1%
Variation (%) of TPR after treatment (anaesthetised dog; 10 min): -15.5%
Variation (%) of CVRM after treatment (anaesthetised dog; 30 min): -27.4%
Variation (%) of TPR after treatment (anaesthetised dog; 30 min): -7.8%

CC1(C)Oc2ccc(C#N)cc2C(N2C(=O)CC[C@H]2CO)C1O (single isomer, unassigned) [Example 1 form B, 3R,4S- or 3S,4R-trans-2,2-dimethyl-3-hydroxy-4-(2-oxo-5S-hydroxymethyl-1-pyrrolidinyl)-6-cyanochroman]
IC50 (aorta of the rat [1]; 30 mM KCl, listed as Ex. 1 Form B, read-out: IC50 (M) KCl 30 mM): 3.4e-07 M
IC50 (aorta of the rat [1]; 80 mM KCl, read-out: IC50 (M) KCl 80 mM): > 0.0001 M
% inhibition of the response to 4AP (aorta of the rat [2]; product 3 × 10^-6 M): 18%
% inhibition of the response to 4AP (aorta of the rat [2]; product 10^-5 M, listed as Ex. 1 Form B): 77%
Variation (%) of PAD after treatment ([3]; 0.3 mg/kg, 1 H): -36 ± 4%
Variation (%) of PAS after treatment ([3]; 0.3 mg/kg, 1 H): -27 ± 4%
Variation (%) of PAD after treatment ([3]; 0.3 mg/kg, 3 H): -35 ± 4%
Variation (%) of PAS after treatment ([3]; 0.3 mg/kg, 3 H): -25 ± 3%
Variation (%) of PAD after treatment ([3]; 0.3 mg/kg, 6 H): -40 ± 4%
Variation (%) of PAD after treatment ([3]; 0.3 mg/kg, 30 min): -34 ± 6%
Variation (%) of PAS after treatment ([3]; 0.3 mg/kg, 30 min): -27 ± 5%
Variation (%) of PAD after treatment ([3]; 1.0 mg/kg, 1 H): -54 ± 2%
Variation (%) of PAS after treatment ([3]; 1.0 mg/kg, 1 H): -44 ± 1%
Variation (%) of PAD after treatment ([3]; 1.0 mg/kg, 3 H): -46 ± 6%
Variation (%) of PAS after treatment ([3]; 1.0 mg/kg, 3 H): -40 ± 2%
Variation (%) of PAD after treatment ([3]; 1.0 mg/kg, 6 H): -46 ± 4%
Variation (%) of PAS after treatment ([3]; 1.0 mg/kg, 6 H): -36 ± 3%
Variation (%) of PAD after treatment ([3]; 1.0 mg/kg, 30 min): -48 ± 5%
Variation (%) of PAS after treatment ([3]; 1.0 mg/kg, 30 min): -42 ± 2%
Variation (%) of PAD after treatment ([4]; 1 H): +5%
Variation (%) of PAS after treatment ([4]; 1 H): +2%
Variation (%) of PAD after treatment ([4]; 3 H): -50%
Variation (%) of PAS after treatment ([4]; 3 H): -55%
Variation (%) of PAD after treatment ([4]; 7 H): -68%
Variation (%) of PAS after treatment ([4]; 7 H): -76%
Variation (%) of PAD after treatment ([4]; 24 H): -27%
Variation (%) of PAS after treatment ([4]; 24 H): -24%
Variation (%) of PAD after treatment ([4]; 30 min): 0%
Variation (%) of PAS after treatment ([4]; 30 min): 0%
Variation (%) of CVRM after treatment (anaesthetised dog; 1 min): -69.4%
Variation (%) of TPR after treatment (anaesthetised dog; 1 min): -45.9%
Variation (%) of CVRM after treatment (anaesthetised dog; 10 min): -62.0%
Variation (%) of TPR after treatment (anaesthetised dog; 10 min): -35.1%
Variation (%) of CVRM after treatment (anaesthetised dog; 30 min): -43.7%
Variation (%) of TPR after treatment (anaesthetised dog; 30 min): -35.1%
Inhibition of the bronchospasm produced by a histamine aerosol at 4% (guinea pig; 0.30 mg/kg i.v.): 96%
